Assay results published in publication PMC11338008, “Development and validation of CYP26A1 inhibition assay for high-throughput screening” (Biotechnology journal, 2024).
“Also recorded” adds a separate entry of the source.

System: CYP26B1, CYP1A2, CYP3A4, CYP2C9, CYP2C19, CYP2D6
Assay: Selectivity across other P450-Glo CYP assays (heatmap, Figure 5)
Details: compared with CYP26A1 assay
Description: The CYP26B1 assay was a custom assay prepared as described above except it contained recombinant human CYP26B1 co-expressed with POR in E. coli (Cypex/BioIVT, Dundee, Scotland, UK; catalog # CYP071) in place of the Cyp26a1 sequence. […] The luminescence signal in each well was measured using a ViewLux plate reader.

| Compound | activity pattern / selectivity across CYP assays, in words |
| --- | --- |
| CCCN(CCOc1c(Cl)cc(Cl)cc1Cl)C(=O)n1ccnc1 [Prochloraz] | inhibitory effects in the CYP26A1 assay similar to their activity patterns on CYP26B1, CYP3A4, CYP2C9, and CYP2C19 |
| CC(C)(C)C(=O)C(Oc1ccc(Cl)cc1)n1cncn1 (centres unmarked) [Triadimefon] | inhibitory effects in the CYP26A1 assay similar to their activity patterns on CYP26B1, CYP3A4, CYP2C9, and CYP2C19 |
| CCCOC/C(=N\c1ccc(Cl)cc1C(F)(F)F)n1ccnc1 [Triflumizole] | inhibitory effects in the CYP26A1 assay similar to their activity patterns on CYP26B1, CYP3A4, CYP2C9, and CYP2C19 |
| CCC(CC)C(c1ccc(Nc2nc3ccccc3s2)cc1)n1cncn1 (centres unmarked) [R115866/Talarozole, Talarozole] | inhibitory effects in the CYP26A1 assay similar to their activity patterns on CYP26B1, CYP3A4, CYP2C9, and CYP2C19; also recorded: broad-spectrum inhibition across various CYP enzymes; also recorded: significant potency in both CYP26A1/B1 and CYP3A4 assays |
| OC(Cn1cncn1)(Cn1cncn1)c1ccc(F)cc1F [Fluconazole] | inhibitory effects in the CYP26A1 assay similar to their activity patterns on CYP26B1, CYP3A4, CYP2C9, and CYP2C19 |
